Reference: ChEMBL document CHEMBL1201862, “PubChem BioAssay data set” (2004)
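Where inhibition never reached the appropriate level, the endpoint shown equals the highest concentration tested. Otherwise, values were interpolated linearly from a five-concentration, 48-hour dose response in 96-well plates. GI50: concentration for 50% inhibition of growth.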 The source made the active and inactive calls. Rule as the data show it: active = GI50 up to about 1.1 µM and inactive = higher.

Columns and labels:
Assay in all cases: DTP human tumour cell line panel, 48 h
IGROV-1 = system: IGROV-1
RXF 393 = system: RXF 393
UACC-62 = system: UACC-62
MDA-N = system: MDA-N
Malme-3M = system: Malme-3M
UACC-257 = system: UACC-257
CAKI-1 = system: CAKI-1
MCF7 = system: MCF7
OVCAR-5 = system: OVCAR-5
OVCAR-4 = system: OVCAR-4
DU-145 = system: DU-145
SF-295 = system: SF-295
TK-10 = system: TK-10
NCI-H522 = system: NCI-H522
NCI-H226 = system: NCI-H226
MDA-MB-435 = system: MDA-MB-435
SNB-19 = system: SNB-19
OVCAR-3 = system: OVCAR-3
SK-MEL-28 = system: SK-MEL-28
NCI-H23 = system: NCI-H23
Hs-578T = system: Hs-578T
EKVX = system: EKVX
SNB-75 = system: SNB-75
COLO 205 = system: COLO 205
HT-29 = system: HT-29
KM12 = system: KM12
OVCAR-8 = system: OVCAR-8
LOX IMVI = system: LOX IMVI
786-0 = system: 786-0
SK-MEL-5 = system: SK-MEL-5
BT-549 = system: BT-549
U-251 = system: U-251
HOP-62 = system: HOP-62
MDA-MB-231 = system: MDA-MB-231
HCT-15 = system: HCT-15
PC-3 = system: PC-3
ACHN = system: ACHN
MOLT-4 = system: MOLT-4
HCT-116 = system: HCT-116
NCI-H460 = system: NCI-H460
HL-60 = system: HL-60
K562 = system: K562
M14 = system: M14
A549 = system: A549
T47D = system: T47D
SN12C = system: SN12C
CCRF-CEM = system: CCRF-CEM
NCI/ADR-RES = system: NCI/ADR-RES
SR = system: SR
SF-268 = system: SF-268
SK-OV-3 = system: SK-OV-3
UO-31 = system: UO-31

Compound: O=c1[nH]c(=O)n(C2CC(O)C(CO)O2)cc1/N=N/NCc1ccccc1 (configuration not stated)
- GI50 (IGROV-1): > 100 µM (inactive)
- GI50 (RXF 393): > 100 µM (inactive)
- GI50 (UACC-62): > 100 µM (inactive)
- GI50 (MDA-N): > 100 µM (inactive)
- GI50 (Malme-3M): > 100 µM (inactive)
- GI50 (UACC-257): > 100 µM (inactive)
- GI50 (CAKI-1): > 100 µM (inactive)
- GI50 (MCF7): > 100 µM (inactive)
- GI50 (OVCAR-5): > 100 µM (inactive)
- GI50 (OVCAR-4): > 100 µM (inactive)
- GI50 (DU-145): > 100 µM (inactive)
- GI50 (SF-295): 59 µM (inactive)
- GI50 (TK-10): > 100 µM (inactive)
- GI50 (NCI-H522): > 100 µM (inactive)
- GI50 (NCI-H226): > 100 µM (inactive)
- GI50 (MDA-MB-435): > 100 µM (inactive)
- GI50 (SNB-19): > 100 µM (inactive)
- GI50 (OVCAR-3): > 100 µM (inactive)
- GI50 (SK-MEL-28): > 100 µM (inactive)
- GI50 (NCI-H23): > 100 µM (inactive)
- GI50 (Hs-578T): > 100 µM (inactive)
- GI50 (EKVX): > 100 µM (inactive)
- GI50 (SNB-75): > 100 µM (inactive)
- GI50 (COLO 205): > 10 µM (inactive)
- GI50 (HT-29): > 100 µM (inactive)
- GI50 (KM12): > 100 µM (inactive)
- GI50 (OVCAR-8): > 100 µM (inactive)
- GI50 (LOX IMVI): > 100 µM (inactive)
- GI50 (786-0): > 100 µM (inactive)
- GI50 (SK-MEL-5): > 100 µM (inactive)
- GI50 (BT-549): > 100 µM (inactive)
- GI50 (U-251): > 100 µM (inactive)
- GI50 (HOP-62): > 100 µM (inactive)
- GI50 (MDA-MB-231): > 100 µM (inactive)
- GI50 (HCT-15): > 100 µM
- GI50 (PC-3): > 100 µM (inactive)
- GI50 (ACHN): > 100 µM (inactive)
- GI50 (MOLT-4): > 100 µM (inactive)
- GI50 (HCT-116): > 100 µM (inactive)
- GI50 (NCI-H460): > 100 µM (inactive)
- GI50 (HL-60): > 100 µM (inactive)
- GI50 (K562): > 100 µM (inactive)
- GI50 (M14): > 100 µM (inactive)
- GI50 (A549): > 100 µM (inactive)
- GI50 (T47D): > 100 µM (inactive)
- GI50 (SN12C): > 100 µM (inactive)
- GI50 (CCRF-CEM): > 100 µM (inactive)
- GI50 (NCI/ADR-RES): > 100 µM (inactive)
- GI50 (SR): > 100 µM (inactive)
- GI50 (SF-268): > 100 µM (inactive)
- GI50 (SK-OV-3): > 100 µM (inactive)
- GI50 (UO-31): > 100 µM (inactive)
